In US10196391B2 (Hoffmann-La Roche Inc., priority 2014, dated 2019):

System: HBV DNA
Assay: HBV DNA assay (real-time qPCR) in HepG2.2.15 cells
Type: cell-based
Conditions: Hepatitis B virus, 144 h, extracellular HBV DNA, 6 days, read-out: IC50 (Anti HBV DNA production activity)
Description: HepG2.2.15 cells (Acs et al. Proc Natl Acad Sci USA, 84, (1987), 4641-4), a constitutively HBV-expressing cell line were cultured in DMEM+Glutamax-I medium (Invitrogen, Carlsbad, Calif., USA), supplemented with 10% fetal bovine serum (Invitrogen) and G418 (Invitrogen) at a final concentration of 200 mg/L and maintained in 5% CO2 at 37° C.
The assay employs real-time qPCR (TaqMan) to directly measure extracellular HBV DNA copy number. HepG2.2.15 cells were plated in 96-well microtiter plates. Only the interior wells were utilized to reduce “edge effects” observed during cell culture, the exterior wells were filled with complete medium to help minimize sample evaporation. On the following day, the HepG2.2.15 cells were washed and the medium was replaced with complete medium containing various concentrations of a test compound in triplicate. 3TC was used as the positive control, while media alone was added to cells as a negative control (virus control, VC). Three days later, the culture medium was replaced with fresh medium containing the appropriately diluted drug. Six days following the initial administration of the test compound, the cell culture supernatant was collected, treated with pronase and then used in a real-time qPCR/TaqMan assay to determine HBV DNA copy numbers. Antiviral activity was calculated from the reduction in HBV DNA levels (IC50). […]

| SMILES | IC50 |
| --- | --- |
| CS(=O)(=O)c1ccc(N2CCc3nc(-c4ccccn4)nc(O)c3C2)cc1 [Example 80, 6-(4-methylsulfonylphenyl)-2-(2-pyridyl)-3,5,7,8-tetrahydropyrido-[4,3-d]pyrimidin-4-one] | 160 nM |

System: HBsAg
Assay: HBsAg assay (CLIA) in HepG2.2.15 cells
Type: cell-based, HBV
Conditions: Hepatitis B virus, HepG2.2.15, read-out: IC50 (HBsAg assay)
How it was run: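 IC50 taken from dose-response curves as the concentration halving secreted HBsAg relative to DMSO control. Measured by chemiluminescence immunoassay of culture supernatant from constitutively HBV-expressing HepG2.2.15 cells, seeded at 1.5×10^4/well in duplicate and exposed to three-fold serial compound dilutions at 1% final DMSO.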

| SMILES | IC50 |
| --- | --- |
| CS(=O)(=O)c1ccc(N2CCc3nc(-c4ccccn4)nc(O)c3C2)cc1 [Example 80, 6-(4-methylsulfonylphenyl)-2-(2-pyridyl)-3,5,7,8-tetrahydropyrido-[4,3-d]pyrimidin-4-one] | 5940 nM |
| COc1cc(N2CCc3cc(-c4ccccn4)ncc3C2)cc(F)c1F [Example 96, 2-(3,4-difluoro-5-methoxy-phenyl)-6-(2-pyridyl)-3,4-dihydro-1H-2,7-naphthyridine] | 162 nM |
| Fc1cc(N2CCc3nc(-c4ccccn4)ncc3C2)ccc1Br [Example 52, 6-(4-bromo-3-fluoro-phenyl)-2-(2-pyridyl)-7,8-dihydro-5H-pyrido[4,3-d]pyrimidine] | 1970 nM |
| COc1cc(F)cc(N2CCc3nc(-c4ncccn4)ncc3C2)n1 [Example 111, 6-(4-fluoro-6-methoxy-2-pyridyl)-2-pyrimidin-2-yl-7,8-dihydro-5H-pyrido[4,3-d]pyrimidine] | 362 nM |
| CS(=O)(=O)c1ccc(N2CCc3nc(-c4ccccn4)ccc3C2)cc1 [Example 89, 6-(4-methylsulfonylphenyl)-2-(2-pyridyl)-7,8-dihydro-5H-1,6-naphthyridine] | 6720 nM |
| COc1ccnc(N2CCc3nc(-c4ccccn4)ncc3C2)c1F [Example 70, 6-(3-fluoro-4-methoxy-2-pyridyl)-2-(2-pyridyl)-7,8-dihydro-5H-pyrido[4,3-d]pyrimidine] | 1550 nM |
| COc1ccc(N2CCc3nc(-c4ccccn4)ncc3C2)cc1OC [Example 59, 6-(3,4-dimethoxyphenyl)-2-(2-pyridyl)-7,8-dihydro-5H-pyrido[4,3-d]pyrimidine] | 9060 nM |
| COCCOc1cc(N2CCc3nc(-c4ccccn4)ncc3C2)cc(F)c1F [Example 23, 6-[3,4-difluoro-5-(2-methoxyethoxy)phenyl]-2-(2-pyridyl)-7,8-dihydro-5H-pyrido[4,3-d]pyrimidine] | 549 nM |
| CCCOc1ccc(N2CCc3nc(-c4ccccn4)ncc3C2)cc1F [Example 55, 6-(3-fluoro-4-propoxy-phenyl)-2-(2-pyridyl)-7,8-dihydro-5H-pyrido[4,3-d]pyrimidine] | 1180 nM |
| OCCOc1cc(N2CCc3nc(-c4ccccn4)ncc3C2)cc(F)c1F [Example 94, 2-[2,3-difluoro-5-[2-(2-pyridyl)-7,8-dihydro-5H-pyrido[4,3-d]pyrimidin-6-yl]phenoxy]ethanol] | 660 nM |
| COCCCOc1cc(N2CCc3nc(-c4ccccn4)ncc3C2)cc(F)c1F [Example 19, 6-[3,4-difluoro-5-(3-methoxypropoxy)phenyl]-2-(2-pyridyl)-7,8-dihydro-5H-pyrido[4,3-d]pyrimidine] | 461 nM |
| Fc1cc(OC(F)(F)F)cc(N2CCc3nc(-c4ncccn4)ncc3C2)c1 [Example 118, 6-[3-fluoro-5-(trifluoromethoxy)phenyl]-2-pyrimidin-2-yl-7,8-dihydro-5H-pyrido[4,3-d]pyrimidine] | 4980 nM |
| Fc1ccc(N2CCc3nc(-c4ccccn4)ncc3C2)c(OCc2ccccc2)c1 [Example 38, 6-(2-benzyloxy-4-fluoro-phenyl)-2-(2-pyridyl)-7,8-dihydro-5H-pyrido[4,3-d]pyrimidine] | 17700 nM |
| COc1cc(N2CCc3nc(-c4ccccn4)ncc3C2)ccc1Cl [Example 62, 6-(4-chloro-3-methoxy-phenyl)-2-(2-pyridyl)-7,8-dihydro-5H-pyrido[4,3-d]pyrimidine] | 1340 nM |
| COc1nc(N2CCc3nc(-c4ccccn4)ncc3C2)ncc1Cl [Example 68, 6-(5-chloro-4-methoxy-pyrimidin-2-yl)-2-(2-pyridyl)-7,8-dihydro-5H-pyrido[4,3-d]pyrimidine] | 1470 nM |
| FC(F)(F)Oc1cccc(N2CCc3nc(-c4ncccn4)ncc3C2)c1 [Example 43, 2-pyrimidin-2-yl-6-[3-(trifluoromethoxy)phenyl]-7,8-dihydro-5H-pyrido[4,3-d]pyrimidine] | 1860 nM |

| SMILES | IC50 |
| --- | --- |
| Fc1cc(C2CC2)cc(N2CCc3nc(-c4ncccn4)ncc3C2)c1 [Example 42, 6-(3-cyclopropyl-5-fluoro-phenyl)-2-pyrimidin-2-yl-7,8-dihydro-5H-pyrido[4,3-d]pyrimidine] | 566 nM |
| COc1cc(N2CCc3nc(-c4ccncn4)ncc3C2)cc(F)c1F [Example 29, 6-(3,4-difluoro-5-methoxy-phenyl)-2-pyrimidin-4-yl-7,8-dihydro-5H-pyrido[4,3-d]pyrimidine] | 4160 nM |
| COc1ccnc(-c2ncc3c(n2)CCN(c2cc(F)c(F)c(OC)c2)C3)c1 [Example 24, 6-(3,4-difluoro-5-methoxy-phenyl)-2-(4-methoxy-2-pyridyl)-7,8-dihydro-5H-pyrido[4,3-d]pyrimidine] | 1860 nM |
| CCC1CN(c2ccc(S(C)(=O)=O)cc2)Cc2cnc(-c3ccccn3)nc21 (centres unmarked) [Example 7, 8-ethyl-6-(4-methylsulfonylphenyl)-2-(2-pyridyl)-7,8-dihydro-5H-pyrido[4,3-d]pyrimidine] | 5170 nM |
| COc1cc(N2CCc3nc(-c4ncccn4)ncc3C2)cc(F)c1Cl [Example 78, 6-(4-chloro-3-fluoro-5-methoxy-phenyl)-2-pyrimidin-2-yl-7,8-dihydro-5H-pyrido[4,3-d]pyrimidine] | 19000 nM |
| CCCc1nc(-c2ccccn2)nc2c1CN(c1ccc(S(C)(=O)=O)cc1)CC2 [Example 85] | 8290 nM |
| COc1ccc(N2CCc3nc(-c4ccccn4)ncc3C2)cc1 [Example 50, 6-(4-methoxyphenyl)-2-(2-pyridyl)-7,8-dihydro-5H-pyrido[4,3-d]pyrimidine] | 21900 nM |
| Cc1cccnc1-c1ncc2c(n1)CCN(c1ccc(S(C)(=O)=O)cc1)C2 [Example 4, 2-(3-methyl-2-pyridyl)-6-(4-methylsulfonylphenyl)-7,8-dihydro-5H-pyrido[4,3-d]pyrimidine] | 17800 nM |
| COc1cc(F)nc(N2CCc3nc(-c4ncccn4)ncc3C2)c1 [Example 99, 6-(6-fluoro-4-methoxy-2-pyridyl)-2-pyrimidin-2-yl-7,8-dihydro-5H-pyrido[4,3-d]pyrimidine] | 100 nM |
| CS(=O)(=O)c1ccc(N2CCc3nc(-c4ccccn4)nc(OCc4ccccc4)c3C2)cc1 [Example 83] | 20000 nM |
| Clc1cc(N2CCc3nc(-c4ncccn4)ncc3C2)cc(Cl)n1 [Example 114, 6-(2,6-dichloro-4-pyridyl)-2-pyrimidin-2-yl-7,8-dihydro-5H-pyrido[4,3-d]pyrimidine] | 1170 nM |
| COc1cc(N2CCc3nc(-c4ccccn4)ncc3C2)ccc1F [Example 90, 6-(4-fluoro-3-methoxy-phenyl)-2-(2-pyridyl)-7,8-dihydro-5H-pyrido[4,3-d]pyrimidine] | 933 nM |
| CCc1nc(-c2ccccn2)nc2c1CN(c1ccc(S(C)(=O)=O)cc1)CC2 [Example 86] | 22100 nM |
| c1cnc(-c2ncc3c(n2)CCN(c2nccs2)C3)nc1 [Example 119, 2-(2-pyrimidin-2-yl-7,8-dihydro-5H-pyrido[4,3-d]pyrimidin-6-yl)thiazole] | 6080 nM |
| COCCCOc1ccc(N2CCc3nc(-c4ccccn4)ncc3C2)cc1OC [Example 44, 6-[3-methoxy-4-(3-methoxypropoxy)phenyl]-2-(2-pyridyl)-7,8-dihydro-5H-pyrido[4,3-d]pyrimidine] | 18900 nM |
